Results published in patent US6281196A, “Isolation and structural elucidation of the human cancer cell growth inhibitory compound denominated agelagalastatin” (Arizona Board of Regents, priority 2000, dated 2001).
Converted amounts (≈) assume the structure as drawn.

Key:
ovary OVCAR-3 = assay: human cancer cell line growth inhibition, ovary OVCAR-3; assay type: cell-based; conditions: drug dose needed to reduce the percent growth to 50%
Description: (§1) The current cost to develop the necessary data required for lawful marketing of a new drug compound approaches ten million dollars per compound. Economics dictate that such a huge investment be made only when there is a reasonable likelihood that it can be recovered. Absent such a likelihood, there will be no investment and, without investment, the research requisite for the discovery of these potentially life saving compounds will cease. Current research in the control of cancer in the United States is coordinated by the National Cancer Institute (NCI). To determine whether a substance has anti-cancer properties, the NCI has established a systematic protocol. This protocol, which involves the testing of a substance against a standard cell line panel containing 60 human tumor cell lines, has been verified and is accepted in scientific circles. The protocol, and the established statistical means for analyzing the results obtained by the standardized testing are fully described in the literature. […]
(§2) Each drug is tested at five (5) doses: 100-10-1-0.1-0.01 μg/ml. Percent Growths are calculated for each dose. […]

[1] = test system: human cancer cell lines (brain SF-295, renal A498, colon KM20L2, melanoma SK-MEL-5, lung NCI-H460, ovarian OVCAR-3); assay: in vitro activity against minipanel of human cancer cell lines; assay type: cell-based; conditions: portion of minipanel including brain SF-295, renal A498, colon KM20L2 and melanoma SK-MEL-5
Description: as §1, §2

lung NCI-H460 = assay: human cancer cell line growth inhibition, lung NCI-H460; assay type: cell-based; conditions: drug dose needed to reduce the percent growth to 50%
Description: as §1, §2

L1210 leukemia cell line = conditions: cited from earlier work
murine melanoma B16 = conditions: cited from earlier work

CCCCCCCCCCCCCCCCCCCCCC[C@@H](O)C(=O)N[C@@H](CO[C@H]1O[C@H](CO)[C@H](O)[C@H](O[C@@H]2O[C@@H]([C@@H](O)CO)[C@H](O)[C@H]2O[C@H]2O[C@@H]([C@@H](O)CO)[C@H](O)[C@H]2O)[C@H]1O)[C@H](O)[C@H](O)CCCCCCCCCCC(C)C [agelagalastatin]
GI50 (ovary OVCAR-3): 2.8 µg/mL (≈ 2.42 µM)
in vitro activity [1]: significant in vitro activity
GI50 (lung NCI-H460): 0.77 µg/mL (≈ 0.666 µM)

CN1C(=O)NC2C3NC(=O)c4ccc(Br)n4C3CC21O (centres unmarked) [agelastatin A]
cytotoxic (L1210 leukemia cell line): cytotoxic

CCCCCCCCCCCCCCCCCCCCCCCCCC(=O)N[C@@H](CO[C@H]1O[C@H](CO)[C@H](O)[C@H](O)[C@H]1O)[C@H](O)[C@H](O)CCCCCCCCCCCCCC [structural modification (5)]
in vivo active (murine melanoma B16): in vivo active
